Results reported in patent US20230265105A1, “MACROCYCLIC 7-PYRAZOL-5-YL-INDOLE DERIVATIVES AS INHIBITORS OF MCL-1” (Janssen Pharmaceutica NV, priority 2020, published 2023).

Key:
[1] = molecular target: Myeloid Cell Leukemia 1 (Mcl-1) (Homo sapiens, UniProt Q07820); test: Terbium labeled Mcl-1 HTRF binding assay with Cy5-labeled BIM BH3 peptide; conditions: Ki=IC50/(1+[L]/Kd), [L]=8 nM, Kd=10 nM, 60 min incubation at room temperature, read-out: Tb-MCL1 Ki
Description: Terbium labeled Myeloid Cell Leukemia 1 (Mcl-1) homogeneous time-resolved fluorescence (HTRF) binding assay utilizing the BIM BH3 peptide (H2N-(C/Cy5Mal) WIAQELRRIGDEFN-OH) as the binding partner for Mcl-1.
This assay evaluated inhibition of the BH3 domain: Mcl-1 interaction by measuring the displacement of Cy5-labeled BIM BH3 peptide (H2N—(C/Cy5Mal) WIAQELRRIGDEFN-OH) in the HTRF assay format.
The following assay and stock buffers were prepared for use in the assay: (a) Stock buffer: 10 mM Tris-HCl, pH=7.5+150 mM NaCl, filtered, sterilized, and stored at 4° C.; and (b) 1×assay buffer, where the following ingredients were added fresh to stock buffer: 2 mM dithiothreitol (DTT), 0.0025% Tween-20, 0.1 mg/mL bovine serum albumin (BSA). The 1×Tb-Mcl-1+Cy5 Bim peptide solution was prepared by diluting the protein stock solution using the 1×assay buffer (b) to 25 pM Tb-Mcl-1 and 8 nM Cy5 Bim peptide.
Using the Acoustic ECHO, 100 nL of 100×test compound(s) were dispensed into individual wells of a white 384-well Perkin Elmer Proxiplate, for a final compound concentration of 1× and final DMSO concentration of 1%. Inhibitor control and neutral control (NC, 100 nL of 100% DMSO) were stamped into columns 23 and 24 of assay plate, respectively. Into each well of the plate was then dispensed 10 μL of the 1×Tb-Mcl-1+Cy5 Bim peptide solution. The plate was centrifuged with a cover plate at 1000 rpm for 1 minute, then incubated for 60 minutes at room temperature with plates covered.
The TR-FRET signal was read on an BMG PHERAStar FSX MicroPlate Reader at room temperature using the HTRF optic module (HTRF: excitation: 337 nm, light source: laser, emission A: 665 nm, emission B: 620 nm, integration start: 60 μs, integration time: 400 μs).
The BMG PHERAStar FSX MicroPlate Reader was used to measure fluorescence intensity at two emission wavelengths—665 nm and 620 nm—and report relative fluorescence units (RFU) for both emissions, as well as a ratio of the emissions (665 nm/620 nm)*10,000. The RFU values were normalized to percent inhibition as follows:
% inhibition=(((NC−IC)−(compound−IC))/(NC−IC))*100
where IC (inhibitor control, low signal)=mean signal of 1×Tb-MCl-1+Cy5 Bim peptide+inhibitor control or 100% inhibition of Mcl-1; NC (neutral control, high signal)=mean signal 1×Tb-MCl-1+Cy5 Bim peptide with DMSO only or 0% inhibition
An 11-point dose response curve was generated to determine IC50 values (using GenData) based on the following equation:
Y=Bottom+(Top−Bottom)/(1+10^((log IC50−X)*HillSlope))
where Y=% inhibition in the presence of X inhibitor concentration; Top=100% inhibition derived from the IC (mean signal of Mcl-1+inhibitor control); Bottom=0% inhibition derived from the NC (mean signal of Mcl-1+DMSO); Hillslope=Hill coefficient; and IC50=concentration of compound with 50% inhibition in relation to top/neutral control (NC).
In this assay [L]=8 nM and Kd=10 nM
Representative compounds of the present invention were tested according to the procedure as described above, with results as listed in the Table below (n.d. means not determined).

[2] = test system: MOLP-8 human multiple myeloma cell line; test: MOLP8 Caspase-Glo 3/7 apoptosis induction assay; type: cell-based; conditions: MOLP-8 cells, 2 hours at 37° C., 30 μM highest conc., averaged over all runs on all batches
Description: MCL-1 is a regulator of apoptosis and is highly over-expressed in tumor cells that escape cell death. The assay evaluates the cellular potency of small-molecule compounds targeting regulators of the apoptosis pathway, primarily MCL-1, Bfl-1, Bcl-2, and other proteins of the Bcl-2 family. Protein-protein inhibitors disrupting the interaction of anti-apoptotic regulators with BH3-domain proteins initiate apoptosis.
The Caspase-Glo® 3/7 Assay is a luminescent assay that measures caspase-3 and -7 activities in purified enzyme preparations or cultures of adherent or suspension cells. The assay provides a proluminescent caspase-3/7 substrate, which contains the tetrapeptide sequence DEVD. This substrate is cleaved to release aminoluciferin, a substrate of luciferase used in the production of light. Addition of the single Caspase-Glo® 3/7 Reagent in an “add-mix-measure” format results in cell lysis, followed by caspase cleavage of the substrate and generation of a “glow-type” luminescent signal.
This assay uses the MOLP-8 human multiple myeloma cell line, which is sensitive to MCL-1 inhibition.
Cell cultures were maintained between 0.2 and 2.0×10^6 cells/mL. The cells were harvested by collection in 50 mL conical tubes. The cells were then pelleted at 500 g for 5 mins before removing supernatant and resuspension in fresh pre-warmed culture medium. The cells were counted and diluted as needed.
The assay reagent was prepared by transferring the buffer solution to the substrate vial and mixing. The solution may be stored for up to 1 week at 4° C. with negligible loss of signal.
Compounds were delivered in assay-ready plates (Proxiplate) and stored at −20° C.
Assays always include 1 reference compound plate containing reference compounds. The plates were spotted with 40 nL of compounds (0.5% DMSO final in cells; serial dilution; 30 μM highest conc. 1/3 dilution, 10 doses, duplicates). The compounds were used at room temperature and 4 μL of pre-warmed media was added to all wells except column 2 and 23. The negative control was prepared by adding 1% DMSO in media. The positive control was prepared by adding the appropriate positive control compound in final concentration of 60 μM in media. The plate was prepared by adding 4 μL negative control to column 23, 4 μL positive control to column 2 and 4 μL cell suspension to all wells in the plate. The plate with cells was then incubated at 37° C. for 2 hours. The assay signal reagent is the Caspase-Glo solution described above, and 8 μL was added to all wells. The plates were then sealed and measured after 30 minutes.
The activity of a test compound was calculated as percent change in apoptosis induction as follows:
[formula] [formula] % Effect (AC50)=100−((sample−LC)/(HC−LC))*100
% Control=(sample/HC)*100
% Control min=(sample−LC)/(HC−LC)*100

Chain of Myeloid Cell Leukemia 1 (Mcl-1) (Q07820 whole entry): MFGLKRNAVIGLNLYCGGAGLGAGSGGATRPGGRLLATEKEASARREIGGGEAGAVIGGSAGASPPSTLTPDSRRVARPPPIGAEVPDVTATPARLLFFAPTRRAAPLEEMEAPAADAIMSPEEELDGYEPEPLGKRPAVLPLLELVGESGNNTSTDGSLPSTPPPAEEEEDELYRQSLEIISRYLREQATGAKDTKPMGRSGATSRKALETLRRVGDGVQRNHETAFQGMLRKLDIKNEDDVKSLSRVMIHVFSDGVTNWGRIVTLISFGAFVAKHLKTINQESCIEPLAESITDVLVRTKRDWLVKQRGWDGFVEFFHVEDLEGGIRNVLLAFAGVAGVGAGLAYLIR

SMILES	Ki [1]	AC50 [2]	AC50 ([2]; Homo sapiens, MOLP-8, 2 h)
COCCOCCc1nn(C)c2c1CSCc1cc(n(C)n1)CCc1cc(c3ccc(F)cc3c1)OCCCc1c(C(=O)O)n(C)c3c-2c(Cl)ccc13 (single isomer, unassigned) [Compound 18]	2.1 nM	2430 nM	
Cn1nc2cc1CCc1cc(c3ccc(F)cc3c1)OCCCc1c(C(=O)O)[nH]c3c(c(Cl)ccc13)-c1c(cnn1C)CSC2 (single isomer, unassigned) [Compound 25]	0.807 nM	4130 nM	
Cn1nc2cc1CCc1cc(c3ccc(F)cc3c1)OCCCc1c(C(=O)O)[nH]c3c(c(Cl)ccc13)-c1c(cnn1C)CSC2 (single isomer, unassigned) [Compound 26]	0.045 nM	235 nM	
COCCOCc1nn(C)c2c1CSCc1cc(n(C)n1)CCc1cc(c3ccc(F)cc3c1)OCCCc1c(C(=O)O)n(C)c3c-2c(Cl)ccc13 (single isomer, unassigned) [Compound 8]	0.025 nM	15 nM	
CCn1c(C(=O)O)c2c3ccc(Cl)c(c31)-c1c(cnn1C)CCCc1cc(n(C)n1)CCc1cc(c3ccc(F)cc3c1)OCCC2 (single isomer, unassigned) [Compound 13]	0.051 nM	22 nM	
COCCOCCn1c(C(=O)O)c2c3ccc(Cl)c(c31)-c1c(cnn1C)CSCc1cc(n(C)n1)CCc1cc(c3ccc(F)cc3c1)OCCC2 (single isomer, unassigned) [Compound 22]	0.029 nM	22 nM	
Cc1nn(C)c2c1CSCc1cc(n(C)n1)CCc1cc(c3ccc(F)cc3c1)OCCCc1c(C(=O)O)n(C)c3c-2c(Cl)ccc13 (single isomer, unassigned) [Compound 10]	0.307 nM	10 nM	
Cc1nn(C)c2c1CSCc1cc(n(C)n1)CSc1cc(c3ccccc3c1)OCCCc1c(C(=O)O)n(C)c3c-2c(Cl)ccc13 (single isomer, unassigned) [Compound 1]	0.746 nM	1220 nM	
COCCOCc1nn(C)c2c1CSCc1cc(n(C)n1)CCc1cc(c3ccc(F)cc3c1)OCCCc1c(C(=O)O)n(C)c3c-2c(Cl)ccc13 (single isomer, unassigned) [Compound 7]	52.3 nM	20400 nM	
COCCOCc1nn(C)c2c1CSCc1cc(n(C)n1)CCc1cc(c3ccc(F)c(F)c3c1)OCCCc1c(C(=O)O)n(C)c3c-2c(Cl)ccc13 (single isomer, unassigned) [Compound 15]	2.58 nM	1400 nM	
COCCOCc1nn(C)c2c1CSCc1cc(n(C)n1)CCc1cc(c3ccccc3c1)OCCCc1c(C(=O)O)n(C)c3c-2c(Cl)ccc13 (single isomer, unassigned) [Compound 4]	0.023 nM	46 nM	
Cc1nn(C)c2c1CSCc1cc(n(C)n1)CCc1cc(c3ccc(F)cc3c1)OCCCc1c(C(=O)O)n(C)c3c-2c(Cl)ccc13 (single isomer, unassigned) [Compound 10a]	0.041 nM	68 nM	
Cn1nc2cc1CCc1cc(c3ccc(F)cc3c1)OCCCc1c(C(=O)O)n(CCN3CCOCC3)c3c(c(Cl)ccc13)-c1c(cnn1C)CSC2 (single isomer, unassigned) [Compound 19]	50.1 nM	29500 nM	
COCCOCc1nn(C)c2c1CSCc1cc(n(C)n1)CCc1cc(c3ccccc3c1)OCCCc1c(C(=O)O)n(C)c3c-2c(Cl)ccc13 (single isomer, unassigned) [Compound 3]	98.2 nM	> 30000 nM	
Cn1nc2cc1CCc1cc(c3ccc(F)cc3c1)OCCCc1c(C(=O)O)n(CCN3CCOCC3)c3c(c(Cl)ccc13)-c1c(cnn1C)CSC2 (single isomer, unassigned) [Compound 21]	0.02 nM	82 nM	
Cn1nc2cc1CSc1cc(c3ccccc3c1)OCCCc1c(C(=O)O)n(C)c3c(c(Cl)ccc13)-c1c(cnn1C)CSC2 (single isomer, unassigned) [Compound 6]	0.062 nM		58 nM
Cc1nn(C)c2c1CSCc1cc(n(C)n1)CCc1cc(c3ccc(F)cc3c1)OCCCc1c(C(=O)O)n(C)c3c-2c(Cl)ccc13 (single isomer, unassigned) [Compound 9]	18.7 nM	8960 nM	
Cc1nn(C)c2c1CSCc1cc(n(C)n1)CCc1cc(c3ccccc3c1)OCCCc1c(C(=O)O)n(C)c3c-2c(Cl)ccc13 (single isomer, unassigned) [Compound 11]	3.02 nM	1620 nM	
Cc1nn(C)c2c1CSCc1cc(n(C)n1)CSc1cc(c3ccccc3c1)OCCCc1c(C(=O)O)n(C)c3c-2c(Cl)ccc13 (single isomer, unassigned) [Compound 2]	0.039 nM	54 nM	
Cc1nn(C)c2c1CSCc1cc(n(C)n1)CCc1cc(c3ccccc3c1)OCCCc1c(C(=O)O)n(C)c3c-2c(Cl)ccc13 (single isomer, unassigned) [Compound 12a]	0.031 nM	29 nM	
COCCOCc1nn(C)c2c1CSCc1cc(n(C)n1)CCc1cc(c3ccc(F)c(F)c3c1)OCCCc1c(C(=O)O)n(C)c3c-2c(Cl)ccc13 (single isomer, unassigned) [Compound 16]	0.021 nM	13 nM	
CN(C)CCn1c(C(=O)O)c2c3ccc(Cl)c(c31)-c1c(cnn1C)CSCc1cc(n(C)n1)CCc1cc(c3ccc(F)cc3c1)OCCC2 (single isomer, unassigned) [Compound 27]	0.031 nM		117 nM
Cc1nn(C)c2c1CSCc1cc(n(C)n1)CCc1cc(c3ccccc3c1)OCCCc1c(C(=O)O)n(C)c3c-2c(Cl)ccc13 (single isomer, unassigned) [Compound 11a]	3.68 nM	2380 nM	
CCn1c(C(=O)O)c2c3ccc(Cl)c(c31)-c1c(cnn1C)CCCc1cc(n(C)n1)CCc1cc(c3ccc(F)cc3c1)OCCC2 (single isomer, unassigned) [Compound 14]	6.15 nM	3460 nM	
